Assay results from publication PMC2967600 (Peptides, 2010).
Blank lines part the entries; values can stand above or below the substance they belong to. Ends that are not written are not given here.

What was measured:
melanocortin receptors = details: cited from earlier work
rat MC5R = details: CHO cells; cited from earlier work
hMC5R = hMC5R (Homo sapiens, UniProt P33032); details: Bednarek et al.; cited from earlier work
mMC3R = mMC3R (Mus musculus, UniProt P33033); test: cAMP based functional bioassay; type: cell-based
mMC5R = mMC5R (Mus musculus, UniProt P41149); test: cAMP based functional bioassay; type: cell-based; details: mMC5R EC50, agonist; mean ± SEM; >100000 = no activity at up to 100μM
mMC5R, sequence (P41149 whole entry): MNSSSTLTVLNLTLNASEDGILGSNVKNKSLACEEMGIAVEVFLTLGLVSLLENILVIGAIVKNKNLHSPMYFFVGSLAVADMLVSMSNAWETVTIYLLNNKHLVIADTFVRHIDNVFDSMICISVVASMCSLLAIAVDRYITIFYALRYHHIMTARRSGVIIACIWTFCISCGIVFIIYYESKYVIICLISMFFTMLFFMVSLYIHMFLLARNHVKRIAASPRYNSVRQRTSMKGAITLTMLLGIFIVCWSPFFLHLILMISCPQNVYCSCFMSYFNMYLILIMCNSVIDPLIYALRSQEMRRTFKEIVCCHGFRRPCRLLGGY

mMC3R, sequence (P33033 whole entry): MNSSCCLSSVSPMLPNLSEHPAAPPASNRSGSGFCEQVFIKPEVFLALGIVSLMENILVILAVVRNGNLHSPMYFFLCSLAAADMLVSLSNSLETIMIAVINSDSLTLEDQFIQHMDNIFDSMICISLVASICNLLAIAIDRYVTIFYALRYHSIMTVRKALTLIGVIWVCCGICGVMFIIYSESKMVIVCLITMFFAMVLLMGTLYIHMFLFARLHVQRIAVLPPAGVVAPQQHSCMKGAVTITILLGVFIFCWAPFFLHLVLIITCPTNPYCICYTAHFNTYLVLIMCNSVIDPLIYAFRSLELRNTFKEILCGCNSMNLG
hMC5R, sequence (P33032 whole entry): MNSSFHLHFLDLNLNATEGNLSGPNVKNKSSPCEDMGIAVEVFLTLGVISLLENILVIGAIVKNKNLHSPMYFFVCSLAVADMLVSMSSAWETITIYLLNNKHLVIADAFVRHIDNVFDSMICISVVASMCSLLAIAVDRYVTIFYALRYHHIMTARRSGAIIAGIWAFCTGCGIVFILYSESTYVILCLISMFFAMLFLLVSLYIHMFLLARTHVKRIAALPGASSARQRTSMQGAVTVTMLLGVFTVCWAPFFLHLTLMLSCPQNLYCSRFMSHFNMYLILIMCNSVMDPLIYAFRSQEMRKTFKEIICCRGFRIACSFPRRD

Substance: Ac-His-Phe-Arg-Trp-NH2
stimulation of melanocortin receptors (melanocortin receptors): able to fully stimulate

Substance: HS024
functional activity at the rat MC5R (rat MC5R): full agonist
functional activity at the hMC5R (hMC5R): full hMC5R agonist

EC50 (mMC3R; mMC3R EC50, agonist, mean ± SEM, >100000 = no activity at up to 100μM): 100 nM
EC50 (mMC5R): 365 nM
Substance: MGHFRWDRF [Peptide 27]

selectivity for the mMC3R versus the mMC4R (mMC3R; from agonist EC50 values): 18 fold
Substance: YVMGHFRWDR [Peptide 6]
